Where two headings read alike, the source gives them in different places.
What was measured:
[1] = molecular target: T1, Human Polymorphonuclear Leukocyte Elastase (Homo sapiens, UniProt P08246); assay: Inhibition of human polymorphonuclear leukocyte elastase via hydrolysis of Boc-AAPAN or Boc-AAPVN; format: biochemical; settings: second order rate constant for inactivation of the enzyme, read-out: Kobs /[I]
T1 sequence (P08246 30-267): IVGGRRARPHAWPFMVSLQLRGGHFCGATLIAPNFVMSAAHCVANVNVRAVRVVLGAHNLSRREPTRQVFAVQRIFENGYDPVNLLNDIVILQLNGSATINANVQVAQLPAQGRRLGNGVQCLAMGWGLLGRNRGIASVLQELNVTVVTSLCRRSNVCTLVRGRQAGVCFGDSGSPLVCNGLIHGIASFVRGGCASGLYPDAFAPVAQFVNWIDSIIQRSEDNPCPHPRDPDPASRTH
In short: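 Crude human PMN extract was added to 0.2 mM Boc-AAPAN or Boc-AAPVN substrate solution in 0.05 M TES pH 7.5 containing inhibitor in DMSO; extract volume was adjusted per batch activity. Hydrolysis was followed as ΔOD/min at 410 mμ, after a pre-check for spontaneous hydrolysis. Values are ID50 (μg/ml, 50% inhibition at 2 min), Ki (μM) or kobs/I.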

HUMAN PROTEINASE 3 = molecular target: T2, HUMAN PROTEINASE 3 (Homo sapiens, UniProt P24158); assay: Inhibition of PR3 catalyzed hydrolysis of MeO-Succ-AAPV-pNA; format: biochemical; settings: Table IV; 45 mM TES pH 7.5, 450 mM NaCl, 10% DMSO; 0.2 mM MeO-succ-AAPV-pNA; read-out: SORC (second order rate constant, kobs /I)
T2 sequence (P24158 28-256): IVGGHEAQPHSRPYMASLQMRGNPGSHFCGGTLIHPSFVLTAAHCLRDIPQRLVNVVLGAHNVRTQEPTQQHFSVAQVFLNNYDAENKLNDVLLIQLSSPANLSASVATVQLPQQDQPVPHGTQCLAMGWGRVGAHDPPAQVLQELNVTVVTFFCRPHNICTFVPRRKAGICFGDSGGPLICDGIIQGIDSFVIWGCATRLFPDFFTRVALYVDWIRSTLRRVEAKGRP
Method: The PR3 catalyzed hydrolysis of MeO-Succ-AAPV-pNA was measured in a spectrophotometer monitoring absorbance at 410 nm. The enzymatic activity was determined in 45 mM TES at pH 7.5, 450 mM NaCl and 10% DMSO. The data were fit by non-linear regression to equation 1 to obtain the initial rates. The nonlinear progress curves observed with time dependent inhibitors were fit to equation 2 to obtain the first order rate constant Kobs. Results were expressed as kobs /I which is the second order rate constant (SORC) in per mole per second for inactivation of the enzyme.
Y=vs *x+[(vo -vs) (1-e^(-K.spsb.o^*x))/Ko
Kinetic constants for the inhibition of PR3 catalyzed hydrolysis of 0.2 mM MeO-succ-AAPV-pNA were determined by varying the concentration of inhibitor present in the reaction vessel.

SMILES | kinact/KI ([1]; pH 7.5, Table I) | other results
CCC[C@@H](NC(=O)N1C(=O)C(CC)(CC)[C@@H]1Oc1ccc(C(C)N(C)CCOC)cc1)c1ccc2c(c1)OCO2 (stereo partly drawn) |  | kinact/KI ([1]; pH 7.5, Table III): 1.3e+06 M⁻¹ s⁻¹; kinact/KI (HUMAN PROTEINASE 3): 31000 M⁻¹ s⁻¹
CCC[C@@H](NC(=O)N1C(=O)C(CC)(CC)[C@@H]1Oc1ccc([C@H](C)N(C)CCOC)cc1)c1ccc(C)cc1 [R4=Me; R5=CH2 CH2 OMe; R6=(S)--Me, (4S)-3,3-Diethyl-4-{(S)-4-[1-((2-methoxyethyl)methylamino)ethyl]phenoxy}-1-[(R)-α-n-propyl-(4-methyl)benzylaminocarbonyl]azetidin-2-one] | 515000 M⁻¹ s⁻¹ | 
CCC[C@@H](NC(=O)N1C(=O)C(CC)(CC)[C@@H]1Oc1ccc(C(CC)N(C)CCOC)cc1)c1ccc(C)cc1 (stereo partly drawn) [R4=Me; R5=CH2 CH2 OMe; R6=Et] | 550000 M⁻¹ s⁻¹ | 
CCC[C@@H](NC(=O)N1C(=O)C(CC)(CC)[C@@H]1Oc1ccc(CN(C)CCOC)cc1)c1ccc(C)cc1 [R4=Me; R5=CH2 CH2 OMe; R6=H, (4S)-3,3-Diethyl-1-[(R)-α-n-propyl-(4-methyl)benzylaminocarbonyl]-4-[(4-(2-methoxyethyl)methylaminomethyl)phenoxyl]azetidin-2-one] | 440000 M⁻¹ s⁻¹ | 
CCC[C@@H](NC(=O)N1C(=O)C(CC)(CC)[C@@H]1Oc1ccc(C(C)N(C)CCOC)cc1)c1ccc(C)cc1 (stereo partly drawn) [R4=Me; R5=CH2 CH2 OMe; R6=Me, (4S)-3,3-Diethyl-1-[(R)-α-n-propyl-(4-methyl)benzylaminocarbonyl]-4-[(R,S)-4-((1-(2-methoxyethyl)methylamino)ethyl)phenoxy]azetidin-2-one] | 600000 M⁻¹ s⁻¹ | 
CCC[C@@H](NC(=O)N1C(=O)C(CC)(CC)[C@@H]1Oc1ccc(CN(C)CCOc2ccccc2)cc1)c1ccc(C)cc1 [R4=Me; R5=CH2 CH2 OPh; R6=H] | 750000 M⁻¹ s⁻¹ | 
CCC[C@@H](NC(=O)N1C(=O)C(CC)(CC)[C@@H]1Oc1ccc(CN(C)CCSCC)cc1)c1ccc(C)cc1 [R4=Me; R5=CH2 CH2 SEt; R6=H, (4S)-3,3-diethyl-1-[(R)-α-n-propyl-(4-methyl)benzylaminocarbonyl]-4-[(4-((2-thioethyl)ethyl)methylaminomethyl)phenoxy]azetidin-2-one] | 1.05e+06 M⁻¹ s⁻¹ | 
CCC[C@@H](NC(=O)N1C(=O)C(CC)(CC)[C@@H]1Oc1ccc(CN(C)CCSC)cc1)c1ccc(C)cc1 [R4=Me; R5=CH2 CH2 SMe; R6=H] | 675000 M⁻¹ s⁻¹ | 
CCC[C@@H](NC(=O)N1C(=O)C(CC)(CC)[C@@H]1Oc1ccc(CN(C)CCS(=O)(=O)CC)cc1)c1ccc(C)cc1 [R4=Me; R5=CH2 CH2 SO2 Et; R6=H, (4S)-3,3-Diethyl-1-[(R)-α-n-propyl-(4-methyl)benzylaminocarbonyl]-4-[(4-((2-thioethyl)ethyl)methylaminomethyl)phenoxy]azetidin-2-one. S-dioxide.] | 1.5e+06 M⁻¹ s⁻¹ | 
CCC[C@@H](NC(=O)N1C(=O)C(CC)(CC)[C@@H]1Oc1ccc(CN(C)CC[S+]([O-])CC)cc1)c1ccc(C)cc1 (stereo partly drawn) [R4=Me; R5=CH2 CH2 SOEt; R6=H, (4S)-3,3-Diethyl-1-[(R)-α-n-propyl-(4-methyl)benzylaminocarbonyl]-4-[(4-((2-thioethyl)ethyl)methylaminomethyl)phenoxy]azetidin-2-one, S-oxide] | 1.4e+06 M⁻¹ s⁻¹ | 
CCC[C@@H](NC(=O)N1C(=O)C(CC)(CC)[C@@H]1Oc1ccc(CN(C)CC2CCCO2)cc1)c1ccc(C)cc1 (stereo partly drawn) [R4=Me; R5=CH2 CH(CH2 CH2 CH2 O); R6=H] | 1e+06 M⁻¹ s⁻¹ | 
CCC[C@@H](NC(=O)N1C(=O)C(CC)(CC)[C@@H]1Oc1ccc(CN(C)CC(=O)N(CCC)CCC)cc1)c1ccc(C)cc1 [R4=Me; R5=CH2 CON(n-Pr)2; R6=H] | 910000 M⁻¹ s⁻¹ | 
CCC[C@@H](NC(=O)N1C(=O)C(CC)(CC)[C@@H]1Oc1ccc(CN(C)C(C)COC)cc1)c1ccc(C)cc1 (stereo partly drawn) [R4=Me; R5=CH(Me)CH2 OMe; R6=H] | 1.22e+06 M⁻¹ s⁻¹ | 
CCC[C@@H](NC(=O)N1C(=O)C(CC)(CC)[C@@H]1Oc1ccc(CN(C)C)cc1)c1ccc(C)cc1 [R4=Me; R5=Me; R6=H] | 560000 M⁻¹ s⁻¹ | 
CCC[C@@H](NC(=O)N1C(=O)C(CC)(CC)[C@@H]1Oc1ccc(CCN(C)C)cc1)c1ccc(C)cc1 [R4=Me; R5=Me; n=2, (4S)-3,3-Diethyl-1-[(R)-α-n-propyl-(4-methyl)benzylaminocarbonyl]-4-[(4-(2-dimethylamino)ethyl)phenoxy]azetidin-2-one] |  | kinact/KI ([1]; pH 7.5, Table II): 1.13e+06 M⁻¹ s⁻¹
CCC[C@@H](NC(=O)N1C(=O)C(CC)(CC)[C@@H]1Oc1ccc(CCCCN(C)C)cc1)c1ccc(C)cc1 [R4=Me; R5=Me; n=4] |  | kinact/KI ([1]; pH 7.5, Table II): 525000 M⁻¹ s⁻¹
CCC[C@@H](NC(=O)N1C(=O)C(CC)(CC)[C@@H]1Oc1ccc(C(COC)N(C)C(C)C)cc1)c1ccc(C)cc1 (stereo partly drawn) [R4=Me; R5=i-Pr; R6=CH2 OMe] | 800000 M⁻¹ s⁻¹ | 
CCC[C@@H](NC(=O)N1C(=O)C(CC)(CC)[C@@H]1Oc1ccc(CN(C)C(C)C)cc1)c1ccc(C)cc1 [R4=Me; R5=i-Pr; R6=H] | 850000 M⁻¹ s⁻¹ | 
CCC[C@@H](NC(=O)N1C(=O)C(CC)(CC)[C@@H]1Oc1ccc(CN(CCOC)C(C)C)cc1)c1ccc(C)cc1 [R4=i-Pr; R5=CH2 CH2 OMe; R6=H] | 500000 M⁻¹ s⁻¹ | 
CCC[C@@H](NC(=O)N1C(=O)C(CC)(CC)[C@@H]1Oc1ccc(C(COC)N(CCC)CCC)cc1)c1ccc(C)cc1 (stereo partly drawn) [R4=n-Pr; R5=n-Pr; R6=CH2 OMe, 3,3-Diethyl-1-[(R)-α-(n-propyl)-4-(methyl)benzylaminocarbonyl]-4-(S)-[4-{1-(RS)-(di-n-propyl)-2-methoxyethyl}phenoxy]azetidin-2-one] | 1e+06 M⁻¹ s⁻¹ | 

From patent publication US5952321A, “Substituted azetidinones as anti-inflammatory and antidegenerative agents” (Merck & Co., Inc., priority 1996, dated 1999)
